Experimental findings from article PMC6273913, “New α-Methylene-γ-Butyrolactone Derivatives as Potential Fungicidal Agents: Design, Synthesis and Antifungal Activities” (Molecules, 2016) are described below.

Each structure is given as a SMILES string. Like-named read-outs stand apart in the source and are kept apart here.

For one data set, the system named is HepG2 cell line. Put plainly: Cytotoxic activity against human tumor cells line (HepG2). The data set is classed as cell-based.
The next data set has as its system C. lagenarium. Put plainly: Spore germination assay, fungicidal activity against C. lagenarium. The data set is classed as cell-based, Colletotrichum lagenarium. The following applies: Colletotrichum orbiculare. How it is done: (§1) The fungal pathogens C. lagenarium and B. cinerea was provided by the Agricultural Culture Collection of China (Yangling, Shaanxi, China). C. lagenarium was cultured for 2 weeks at 25 ± 1 °C on potato dextrose agar (PDA) while B. cinerea was cultured at 20 °C on the same medium after being retrieved from the storage tube. Plates were flooded with sterile distilled water, and then conidia were scraped with a glass rod. Mycelial debris was removed by filtration. The spores were harvested and suspended in sterile distilled water containing 0.1% (v/v) Tween 20. The concentration of the spore suspension was adjusted to 1.0 × 10^6 spores/mL with sterilized distilled water following.
(§2) The tested samples (10.0 mg) dissolved in acetone (0.1 mL) were diluted with sterile distilled water to prepare 10.0 mL stock solution, which was further diluted to prepare test solutions in which the final concentration of acetone was <1% (v/v). A series of concentrations of tested samples and one control (1% acetone with sterile distilled water) were separately tested for spore germination of C. lagenarium or B. cinerea. The samples were inoculated with spore suspension of C. lagenarium or B. cinerea containing 1.0 × 10^6 spores/mL. Aliquots of 10 μL of prepared spore suspension were placed on separate glass slides in triplicate. Slides containing the spores were incubated in a moisture chamber at 25 °C for 6~8 h. Each slide was then observed under the microscope for spore germination. Spores were considered to have germinated if the length of the germ tube was at least half the length of the spore. Afterward, spore germination was stopped by applying a drop of lactophenol-cotton blue to the inoculation sites on plates. The numbers of generated spores were counted under a microscope (Olympus BX61, Tokyo, Japan), and the percentage of germinated spores was calculated. Chlorothalonil was used as the positive control.

For a further data set, the system named is B. cinerea. The experiment in a line: Spore germination assay, fungicidal activity against B. cinerea. The data set is classed as cell-based, Botrytis cinerea. The following applies: Botrytis cinerea, in vitro, n = 3. Here is the method:
as §1, §2

Setting [1] is: Table 1, from IC50 in μM, read-out: pIC50, C. lagenarium (converted).
Setting [2] is: Table 2, fungicidal activity against C. lagenarium used for QSAR, read-out: pIC50 (converted).
Where [3] appears, read: Table 4, experimental, C. lagenarium, read-out: Exp. pIC50 (converted).
The mark [4] stands for this setting: Table 6, read-out: IC50 (μM) (against C. lagenarium).
Where [5] appears, read: in vitro, spore germination, n = 3, read-out: IC50, C. lagenarium.

Consider `C=C1CC(c2ccc(OC(=O)c3ccccc3)cc2)OC1=O` (stereo not drawn) [Compound 4i, 4-(4-Benzoyloxyphenyl)-2-methylenebutyrolactone], for which the melting point – broadly, the temperature of the solid-liquid transition – lay within 223.3 to 223.7 °C. The same compound registered an IC50 in the data set with HepG2 cell line of 5.3 µM. In addition, the IC50 with C. lagenarium (setting [1]) is 95.3 µM. For the same compound, the IC50 in the data set on C. lagenarium (setting [2]) was 95.3 µM. In addition, the IC50 with C. lagenarium (setting [3]) is 95.3 µM. In addition, the IC50 in the data set with C. lagenarium (setting [4]) came to 95.4 µM. For the same compound, the IC50 with C. lagenarium (setting [5]) is 95.4 µM. Further, the IC50 in the data set on B. cinerea turned out to be 112 µM.

`C=C1CC(c2ccc(OC(=O)c3cccc(C)c3)cc2)OC1=O` (stereo not drawn) [Compound 4k, 4-[4-(3-Methylbenzoyloxy)phenyl]-2-methylenebutyrolactone] came in with a melting point of 186.2 to 186.6 °C. For the same compound, the IC50 in the data set with HepG2 cell line came to 28.5 µM. In addition, the IC50 with C. lagenarium (setting [1]) was 178 µM. For the same compound, the IC50 in the data set with C. lagenarium (setting [2]) was 178 µM. Besides, the IC50 in the data set with C. lagenarium (setting [3]) was 178 µM. In the data set on C. lagenarium (setting [4]), the IC50 was found to be 178 µM. In addition, the IC50 in the data set on C. lagenarium (setting [5]) was determined as 178 µM. This compound showed an IC50 in the data set on B. cinerea of 193 µM.

`C=C1CC(c2ccc(OC(=O)c3ccc(OC)cc3)cc2)OC1=O` (stereo not drawn) [Compound 4o, 4-[4-(4-Methoxylbenzoyloxy)phenyl]-2-methylenebutyrolactone]: the melting point is 184.5 to 185.2 °C. This compound had an IC50 in the data set on HepG2 cell line of 25 µM. In the data set on C. lagenarium (setting [1]), the IC50 was 219 µM. Besides, the IC50 in the data set with C. lagenarium (setting [2]) is 219 µM. In addition, the IC50 with C. lagenarium (setting [3]) was 219 µM. Besides, in the data set with C. lagenarium (setting [4]), the IC50 was 219 µM. Further, in the data set with C. lagenarium (setting [5]), the IC50 is 219 µM. The same compound had an IC50 in the data set on B. cinerea of 231 µM.

Compound `C=C1CC(c2ccccc2OC(=O)c2cccc(Cl)c2)OC1=O` (stereo not drawn) [Compound 5a, 4-[2-(3-Chlorobenzoyloxy)phenyl]-2-methylenebutyrolactone] came in with a melting point of 201.3 to 201.8 °C. Moreover, the IC50 in the data set with HepG2 cell line is 28.4 µM. In the data set with C. lagenarium (setting [1]), the IC50 is 16.8 µM. Also, the IC50 with C. lagenarium (setting [2]) was 16.8 µM. For the same compound, the IC50 in the data set on C. lagenarium (setting [3]) is 16.8 µM. Besides, the IC50 in the data set with C. lagenarium (setting [4]) was 16.8 µM. Further, in the data set on C. lagenarium (setting [5]), the IC50 turned out to be 16.8 µM. In the data set on B. cinerea, this compound returned an IC50 of 30.6 µM.

For `C=C1CC(c2ccccc2OC(=O)c2cccc(Br)c2)OC1=O` (stereo not drawn) [Compound 5d, 4-[2-(3-Bromobenzoyloxy)phenyl]-2-methylenebutyrolactone], the melting point lay in the range of 189.7 to 190.4 °C. Also, the IC50 in the data set on HepG2 cell line amounted to 35.6 µM. Also, in the data set on C. lagenarium (setting [1]), the IC50 was 13.4 µM. In addition, the IC50 in the data set with C. lagenarium (setting [2]) was 13.4 µM. In the data set with C. lagenarium (setting [3]), the IC50 was 13.4 µM. The IC50 in the data set with C. lagenarium (setting [4]) turned out to be 13.4 µM. In addition, in the data set on C. lagenarium (setting [5]), the IC50 amounted to 13.4 µM. Further, the IC50 with B. cinerea was 22.9 µM.

For the compound `C=C1CC(c2ccccc2OC(=O)c2cccc(C)c2)OC1=O` (stereo not drawn) [Compound 5i, 4-[2-(3-Methylbenzoyloxy)phenyl]-2-methylenebutyrolactone], the melting point lay in the range of 179.3 to 179.9 °C. The compound further gave an IC50 with HepG2 cell line of 85.2 µM. Also, in the data set on C. lagenarium (setting [1]), the IC50 is 182 µM. The IC50 in the data set with C. lagenarium (setting [2]) was 182 µM. For the same compound, in the data set on C. lagenarium (setting [3]), the IC50 was 182 µM. Also, in the data set with C. lagenarium (setting [4]), the IC50 stood at 182 µM. The IC50 with C. lagenarium (setting [5]) worked out at 182 µM. The same compound gave an IC50 in the data set on B. cinerea of 194 µM.

Regarding `C=C1CC(c2ccccc2OC(=O)c2cccc(OC)c2)OC1=O` (stereo not drawn) [Compound 5l, 4-[2-(3-Methoxylbenzoyloxy)phenyl]-2-methylenebutyrolactone], the melting point fell in the range of 180.3 to 180.8 °C. Also, the IC50 in the data set with HepG2 cell line stood at 29 µM. In addition, the IC50 with C. lagenarium (setting [1]) was 284 µM. Moreover, the IC50 in the data set with C. lagenarium (setting [2]) was 284 µM. In addition, the IC50 in the data set on C. lagenarium (setting [3]) is 284 µM. Moreover, the IC50 with C. lagenarium (setting [4]) came to 284 µM. Further, the IC50 in the data set on C. lagenarium (setting [5]) came out at 284 µM. The same compound showed an IC50 in the data set on B. cinerea of 303 µM.

With `C=C1CC(c2cccc(O)c2)OC1=O` (stereo not drawn) [Compound 6, 4-(3-Hydroxyphenyl)-2-methylenebutyrolactone], the melting point lay within 78 to 79 °C. Moreover, the IC50 in the data set with HepG2 cell line was 17.9 µM. In addition, in the data set with C. lagenarium (setting [1]), the IC50 is 117 µM. In addition, the IC50 with C. lagenarium (setting [4]) is 117 µM. In the data set with C. lagenarium (setting [5]), the IC50 came to 117 µM. The compound also registered an IC50 with B. cinerea of 140 µM.

Compound `C=C1CC(c2cccc(OC(=O)c3cccc(Cl)c3)c2)OC1=O` (stereo not drawn) [Compound 6a, 4-[3-(3-Chlorobenzoyloxy)phenyl]-2-methylenebutyrolactone] gave a melting point of 205.7 to 206.4 °C. The IC50 in the data set with HepG2 cell line came to 30.2 µM. Besides, the IC50 in the data set on C. lagenarium (setting [1]) was 7.67 µM. Moreover, the IC50 in the data set on C. lagenarium (setting [2]) is 7.67 µM. Also, in the data set with C. lagenarium (setting [3]), the IC50 is 7.67 µM. In addition, the IC50 with C. lagenarium (setting [4]) came out at 7.68 µM. Moreover, in the data set with C. lagenarium (setting [5]), the IC50 amounted to 7.68 µM. Moreover, in the data set on B. cinerea, the IC50 is 23.3 µM.

As to `C=C1CC(c2cccc(OC(=O)c3cccc(Br)c3)c2)OC1=O` (stereo not drawn) [Compound 6d, 4-[3-(3-Bromobenzoyloxy)phenyl]-2-methylenebutyrolactone], the melting point lay within 178.6 to 178.9 °C. For the same compound, the IC50 in the data set on HepG2 cell line was found to be 20.9 µM. The IC50 in the data set on C. lagenarium (setting [1]) is 8.17 µM. For the same compound, in the data set with C. lagenarium (setting [2]), the IC50 is 8.17 µM. The IC50 with C. lagenarium (setting [3]) is 8.17 µM. Moreover, in the data set with C. lagenarium (setting [4]), the IC50 was determined as 8.17 µM. The IC50 in the data set on C. lagenarium (setting [5]) was 8.17 µM. This compound also gave an IC50 in the data set with B. cinerea of 26 µM.

The compound `C=C1CC(c2cccc(OC(=O)c3ccccc3)c2)OC1=O` (stereo not drawn) [Compound 6f, 4-(3-Benzoyloxyphenyl)-2-methylenebutyrolactone] showed a melting point of 204.5 to 204.8 °C. In the data set with HepG2 cell line, this compound had an IC50 of 18.5 µM. Further, in the data set on C. lagenarium (setting [1]), the IC50 was 73.1 µM. In the data set with C. lagenarium (setting [2]), the IC50 was 73.1 µM. Also, in the data set on C. lagenarium (setting [3]), the IC50 is 73.1 µM. For the same compound, the IC50 in the data set with C. lagenarium (setting [4]) is 73.1 µM. In the data set on C. lagenarium (setting [5]), the IC50 came to 73.1 µM. In the data set on B. cinerea, the IC50 amounted to 102 µM.

The compound `C=C1CC(c2cccc(OC(=O)c3ccccc3C)c2)OC1=O` (stereo not drawn) [Compound 6g, 4-[3-(2-Methylbenzoyloxy)phenyl]-2-methylenebutyrolactone] came in with a melting point of 178.3 to 178.9 °C. The IC50 in the data set on HepG2 cell line came to 22 µM. Besides, the IC50 with C. lagenarium (setting [1]) is 159 µM. The IC50 with C. lagenarium (setting [2]) is 159 µM. The IC50 with C. lagenarium (setting [3]) was 159 µM. Also, in the data set on C. lagenarium (setting [4]), the IC50 is 159 µM. In the data set with C. lagenarium (setting [5]), the IC50 was determined as 159 µM. In addition, the IC50 in the data set on B. cinerea was 180 µM.

`C=C1CC(c2cccc(OC(=O)c3ccc(OC)cc3)c2)OC1=O` (stereo not drawn) [Compound 6l, 4-[3-(4-Methoxybenzoyloxy)phenyl]-2-methylenebutyrolactone] showed a melting point of 182.6 to 183.3 °C. In the data set with HepG2 cell line, this compound yielded an IC50 of 58.6 µM. In the data set on C. lagenarium (setting [1]), the IC50 was 154 µM. In the data set with C. lagenarium (setting [2]), the IC50 was 154 µM. For the same compound, the IC50 in the data set on C. lagenarium (setting [3]) is 154 µM. In the data set on C. lagenarium (setting [4]), the IC50 turned out to be 154 µM. Besides, the IC50 with C. lagenarium (setting [5]) is 154 µM. The IC50 in the data set with B. cinerea turned out to be 179 µM.
